# T1: rA1M (recombinant human α1-microglobulin; rA1M-wt and rA1M-035) (Homo sapiens, UniProt P02760)
# T1 construct: gene AMBP
# T1 sequence (P02760 20-202): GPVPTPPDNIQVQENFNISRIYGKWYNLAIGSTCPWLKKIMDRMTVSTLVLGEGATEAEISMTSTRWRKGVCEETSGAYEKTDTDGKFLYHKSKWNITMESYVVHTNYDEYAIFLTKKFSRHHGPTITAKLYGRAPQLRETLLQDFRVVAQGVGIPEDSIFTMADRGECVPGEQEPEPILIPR
# T2: rA1M (recombinant human α1-microglobulin; rA1M-wt and rA1M-035) (Homo sapiens, UniProt P02760, N115D/N36D/R85H)
# T2 construct: gene AMBP
# T2 sequence (P02760 20-202 N36D/R85H/N115D): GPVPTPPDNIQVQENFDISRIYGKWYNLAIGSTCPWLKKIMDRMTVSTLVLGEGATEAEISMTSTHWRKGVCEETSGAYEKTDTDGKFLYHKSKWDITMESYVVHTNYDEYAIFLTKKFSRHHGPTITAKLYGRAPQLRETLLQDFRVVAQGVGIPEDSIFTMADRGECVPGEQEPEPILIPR
# B1: recombinant wild-type human α1-microglobulin (rA1M-wt) (protein)
# chain: GPVPTPPDNIQVQENFNISRIYGKWYNLAIGSTCPWLKKIMDRMTVSTLVLGEGATEAEISMTSTRWRKGVCEETSGAYEKTDTDGKFLYHKSKWNITMESYVVHTNYDEYAIFLTKKFSRHHGPTITAKLYGRAPQLRETLLQDFRVVAQGVGIPEDSIFTMADRGECVPGEQEPEPILIPRV
# Legend:
# [1] = target: T1, rA1M (recombinant human α1-microglobulin; rA1M-wt and rA1M-035); assay: SPR (BIAcore X100), rA1M captured on immobilized anti-His antibody; format: binding
# [2] = target: T2, rA1M (recombinant human α1-microglobulin; rA1M-wt and rA1M-035); assay: as above; format: binding
# [3] = SEC; 24-mL Superose 12 10/30 GL column, 20 mM Tris-HCl, pH 8.0 + 0.15 M NaCl; 100-200 ug protein loaded; unstressed samples at 0.1 mM or samples stored in PBS at the indicated concentrations, temperatures and times
# P02760 = assay: as above
molecule,measurement,setting,value
C=CC1=C(C)C2=Cc3c(C=C)c(C)c4[n]3[Fe]([Cl])[n]3c(c(C)c(CCC(=O)O)c3=CC3=NC(=C4)C(C)=C3CCC(=O)O)=CC1=N2 [heme],Kd,[1],15.8 µM
same,Kd,[2],4.45 µM
"rA1M-035, recombinant human α1-microglobulin variant with N17D, R66H and N96D",Monomer (%),[3],93%
B1,Monomer (%),P02760,87%
